What was measured:
Test in all cases: relative viability (nuclei count vs DMSO), 5 days (fraction); higher = more cells survive
Bortezomib + Trametinib = compound: CC(C)C[C@H](NC(=O)[C@H](Cc1ccccc1)NC(=O)c1cnccn1)B(O)O [Bortezomib] + CC(=O)Nc1cccc(-n2c(=O)n(C3CC3)c(=O)c3c(Nc4ccc(I)cc4F)n(C)c(=O)c(C)c32)c1 [Trametinib] (partner 0.02 µM)
Outline: (§1)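 Relative viability equals treated-well nuclei counts divided by vehicle-well nuclei counts. Counts came from 4× images of lung cancer cell lines grown in 1536-well plates for 5 days after pin-tool dosing on the day after seeding. Dosing used one drug alone or a fixed anchor-drug dose plus five library-drug doses (not always all listed) in √10 steps, and values are medians of duplicate plates.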

Bortezomib + Navitoclax = compound: CC(C)C[C@H](NC(=O)[C@H](Cc1ccccc1)NC(=O)c1cnccn1)B(O)O [Bortezomib] + CC1(C)CCC(c2ccc(Cl)cc2)=C(CN2CCN(c3ccc(C(=O)NS(=O)(=O)c4ccc(N[C@H](CCN5CCOCC5)CSc5ccccc5)c(S(=O)(=O)C(F)(F)F)c4)cc3)CC2)C1 [Navitoclax] (partner 0.5 µM)
Outline: as §1

Bortezomib + Linsitinib = compound: CC(C)C[C@H](NC(=O)[C@H](Cc1ccccc1)NC(=O)c1cnccn1)B(O)O [Bortezomib] + C[C@]1(O)C[C@@H](c2nc(-c3ccc4ccc(-c5ccccc5)nc4c3)c3c(N)nccn32)C1 [Linsitinib] (partner 1 µM)
Outline: as §1

[1] = compound: CC1=CC(=NN1)NC2=CC(=NC(=N2)/C=C/C3=CC=CC=C3)N4CCN(CC4)C + C[C@@H](Oc1cc(-c2cnn(C3CCNCC3)c2)cnc1N)c1c(Cl)ccc(F)c1Cl [Crizotinib] (partner 1 µM)
Outline: as §1

Row | Cell Line | relative viability (Bortezomib + Trametinib; first compound 0.0002 µM) | relative viability (Bortezomib + Trametinib; first compound 0.000632 µM) | relative viability (Bortezomib + Trametinib; first compound 0.002 µM) | relative viability (Bortezomib + Trametinib; first compound 0.006325 µM) | relative viability (Bortezomib + Trametinib; first compound 0.02 µM) | relative viability (Bortezomib + Navitoclax; first compound 0.0002 µM) | relative viability (Bortezomib + Navitoclax; first compound 0.000632 µM) | relative viability (Bortezomib + Navitoclax; first compound 0.002 µM) | relative viability (Bortezomib + Navitoclax; first compound 0.006325 µM) | relative viability (Bortezomib + Navitoclax; first compound 0.02 µM) | relative viability (Bortezomib + Linsitinib; first compound 0.0002 µM) | relative viability (Bortezomib + Linsitinib; first compound 0.000632 µM) | relative viability (Bortezomib + Linsitinib; first compound 0.002 µM) | relative viability (Bortezomib + Linsitinib; first compound 0.006325 µM) | relative viability (Bortezomib + Linsitinib; first compound 0.02 µM) | relative viability ([1]; first compound 0.08 µM) | relative viability ([1]; first compound 0.253 µM) | relative viability ([1]; first compound 0.8 µM) | relative viability ([1]; first compound 2.53 µM) | relative viability ([1]; first compound 8 µM)
1 | PC-3 [JPC-3] | 0.639 | 0.756 | 0.41 | 0.252 | 0.202 | 0.783 | 0.842 | 0.724 | 0.44 | 0.139 | 0.989 | 0.929 | 0.87 | 0.916 | 0.186 | 0.931 | 1 | 0.917 | 0.878 | 0.74
2 | HCC-44 | 1.1 | 1.04 | 0.984 | 0.92 | 0.277 | 0.96 | 0.932 | 0.94 | 0.225 | 0.192 | 0.618 | 0.61 | 0.515 | 0.19 | 0.113 | 0.756 | 0.837 | 0.787 | 0.386 | 0.0992
3 | NCI-H2405 | 0.579 | 0.646 | 0.523 | 0.223 | 0.188 | 0.769 |  | 0.134 | 0.0865 | 0.113 | 0.868 |  | 0.32 | 0.147 | 0.169 | 0.868 | 0.818 | 0.803 | 0.694 | 0.202
4 | LXF-289 | 0.699 | 0.672 | 0.768 | 0.113 | 0.101 | 0.936 | 0.942 | 0.955 | 0.0537 | 0.0449 | 0.946 | 0.968 | 1 | 0.0941 | 0.0652 | 0.817 | 0.825 | 0.682 | 0.23 | 0.0611
5 | LOU-NH91 | 0.772 | 0.793 | 0.402 | 0.344 | 0.359 | 0.697 | 0.543 | 0.254 | 0.187 | 0.201 | 0.995 | 0.86 | 0.383 | 0.285 | 0.294 | 0.775 | 0.757 | 0.741 | 0.706 | 0.403
6 | A549 |  |  |  |  |  | 1.14 | 1.22 | 1.07 | 0.0316 | 0.0335 | 0.667 | 0.538 | 0.423 | 0.122 | 0.0542 | 0.873 | 0.537 | 0.257 | 0.112 | 0.0338
7 | H3255 | 0.593 | 0.69 | 0.331 | 0.239 | 0.274 | 0.533 | 0.557 | 0.557 | 0.105 | 0.0892 | 0.914 | 1.02 | 0.705 | 0.263 | 0.19 | 0.731 | 0.936 | 0.943 | 0.74 | 0.192
8 | NCI-H1395 | 1.14 | 0.939 | 0.708 | 0.315 | 0.31 | 1.27 | 1.52 | 0.448 | 0.39 | 0.345 | 1.02 | 0.97 | 0.463 | 0.382 | 0.347 |  |  |  |  | 
9 | LC-2-ad | 0.903 | 0.89 | 0.995 | 0.597 | 0.201 | 0.422 |  | 0.543 | 0.0995 | 0.0978 | 0.798 |  | 0.811 | 0.151 | 0.127 | 0.475 | 0.469 | 0.365 | 0.303 | 0.186
10 | NCI-H838 | 0.479 | 0.677 | 0.549 | 0.106 | 0.0935 | 1.21 | 1.21 | 1.17 | 0.171 | 0.161 | 0.995 | 1.01 | 0.962 | 0.142 | 0.145 | 0.89 | 0.936 | 0.742 | 0.434 | 0.0999
11 | Calu-6 |  |  |  |  |  | 0.749 | 0.882 | 0.69 | 0.0841 | 0.0734 | 0.938 | 0.775 | 0.961 | 0.214 | 0.0654 | 0.735 | 0.622 | 0.345 | 0.197 | 0.101
12 | SW 900 | 0.587 | 0.578 | 0.167 | 0.155 | 0.145 |  |  |  |  |  |  |  |  |  |  |  |  |  |  | 
13 | LCLC-97TM1 | 0.173 | 0.205 | 0.162 | 0.0973 | 0.063 | 0.586 | 0.451 | 0.186 | 0.222 | 0.0968 | 0.187 | 0.17 | 0.14 | 0.146 | 0.111 | 0.381 | 0.352 | 0.292 | 0.152 | 0.078
14 | HCC-15 | 0.39 | 0.394 | 0.426 | 0.117 | 0.104 | 0.706 | 0.681 | 0.692 | 0.421 | 0.116 | 0.815 | 0.947 | 0.91 | 0.504 | 0.0972 | 0.864 | 0.823 | 0.783 | 0.298 | 0.0811
15 | CAL-12T | 0.378 | 0.335 | 0.327 | 0.156 | 0.133 | 1.27 | 1.14 | 1.26 | 0.19 | 0.123 | 0.898 | 0.852 | 0.742 | 0.662 | 0.165 | 0.825 | 0.54 | 0.291 | 0.11 | 0.0934
16 | NCI-H727 | 0.367 | 0.43 | 0.363 | 0.413 | 0.266 | 0.455 | 0.511 | 0.541 | 0.167 | 0.103 | 0.354 | 0.289 | 0.408 | 0.189 | 0.0878 | 0.856 | 0.805 | 0.767 | 0.348 | 0.185
17 | ABC-1 |  |  |  |  |  |  |  |  |  |  | 0.806 | 0.688 | 0.308 | 0.257 | 0.234 | 0.866 | 1.25 | 0.562 | 0.182 | 0.169
18 | NCI-H2023 | 0.631 | 0.569 | 0.533 | 0.131 | 0.0889 | 0.967 | 0.994 | 0.936 | 0.17 | 0.0898 | 0.68 | 0.723 | 0.711 | 0.102 | 0.0845 | 0.631 | 0.611 | 0.343 | 0.0794 | 0.0532

— the supplement of paper PMC10307832
